Assay results: patent US20100247456A1, “METHODS AND COMPOSITIONS FOR PREVENTING CARIES” (priority 2009, published 2010)
Values joined by “and” are separate entries in the source; they are usually repeats but may differ in a detail not shown here. Equal entries are not always repeated.

Tested on: caries
Assay: 6-month comparison of silver-diamine-fluoride (SDF) and fluoride varnish in school aged children
Type: in vivo
Description: A fluoride composition was used in the study.
The compositions were applied once at the time of the initial exam using a tiny brush to any decayed area for 3 min, then the child rinsed.

[1] = after 6 months, applied once to decayed area for 3 min

silver diamine fluoride [SDF]
SDF Number Needed To Treat, Active Caries ([1/(Varnish % − SDF %)], 6 months): 1.2
SDF Prevented Fraction, Active Caries ([(Varnish % − SDF %)/Varnish %], 6 months): 82.7
reduction in active caries compared to fluoride varnish (after 6 months): about 80%
Active Caries, # of School Children, Frequency [1]: 20
Active Caries, # of School Children, Percent [1]: 16% and 16.8%
Active and Arrested Caries in same child, # of School Children, Frequency [1]: 69
Active and Arrested Caries in same child, # of School Children, Percent [1]: 58.0%
Arrested Caries, # of School Children, Frequency [1]: 27
Arrested Caries, # of School Children, Percent [1]: 22.7%
Dental Fillings, # of School Children, Frequency [1]: 3
Dental Fillings, # of School Children, Percent [1]: 2.5%
